Measured values taken from patent US9670217B2, “Process for preparing chlorins and their pharmaceutical uses” (UNIVERSIDADE DE COIMBRA, priority 2008, dated 2017).

Legend:
[1] = Absorption spectra (λmax, molar absorption coefficient); type: physicochemical; settings: in aqueous solution
Experimental: Absorption spectra were recorded on a Shimadzu UV-2100 spectrophotometer or with a Carry 50 Biospectrophotometer (Varian, Mulgrave, USA). Fluorescence spectra were measured with a Spex Fluorolog 3 spectrophotometer, with correction for the wavelength dependence system (RCA C31034 photomultiplier), or with a PerkinElmer LS 50 spectrofluorimeter. Transient absorption spectra were measured with an Applied Photophysics LKS 60 nanosecond laser flash photolysis kinetic spectrometer, using the third harmonic of a Spectra-Physics Quanta Ray GCR 130-01 Nd/YAG laser for excitation, a Hamamatsu 1P28 photomultiplier and a Hewlett-Packard Infinium oscilloscope (1 GS/s). Flash photolysis measurements were made in the presence of air and in argon saturated solutions. Photoacoustic calorimetry employed the same Nd/YAG laser, a home-made front-face photoacoustic cell with a 2.25 MHz Panametrics transducer (model 5676) and a Tektronix DSA 601 transient recorder. Room-temperature singlet-oxygen phosphorescence was measured at 1270 nm with a Hamamatsu R5509-42 photomultiplier, cooled to 193 K in a liquid nitrogen chamber (Products for Research model PC176TSCE005), following laser excitation of aerated solutions at 355 nm, using an adapted Applied Photophysics spectrometer. Singlet oxygen emission at 1270 nm was also monitored with a liquid nitrogen-cooled germanium detector (North Coast) coupled to a Tectronix Digitizing scope (TDS 520B), following sample excitation with 5 ns laser pulses of the third harmonic (355 nm) generated by a Q-switched Nd:YAG laser (Continuum Surelite II).
(§1) This is indicative of little aggregation between the molecules, which exist mostly as monomers at these concentrations in the solvents studied. Table 1 presents typical red and infrared molar absorption coefficients (εmax) and wavelength maxima. The same table also presents representative fluorescence quantum yields (ΦF) of Luzitins. The fluorescence quantum yields decrease of these molecules decrease in the presence of chlorine substituents, a fingerprint of the heavy atom effect expected for such molecules.

[2] = Fluorescence quantum yield; type: physicochemical; settings: in aqueous solution
Experimental: The absorptions of both reference and sample solutions were matched at ca 0.2 at the excitation wavelength of 515.5 nm, and the solutions were diluted by a factor 10 before collecting the fluorescence. The fluorescence quantum yield was obtained from the ratio of the fluorescence bands of the sample vs the reference, multiplied by the fluorescence quantum yield of the reference, 0.012 according to [12], after correction for the difference of refractive indexes of ethanol and toluene.
as §1

S91 (mouse melanoma) = test: Cell photosensitization, filtered halogen lamp, MTT; type: cell-based; settings: [Luzitin-Cl-c] = 20 μM
Experimental: (§2) Irradiation in in vitro experiments was performed using either a halogen lamp or a laser source. In the first case, a 500 W halogen lamp was placed 50 cm from the irradiated plate to insure a homogeneous irradiation. A cooled water filter (d=35 mm) and a 600 nm cut off filter were placed between the lamp and samples. The fluence rate reaching samples was 3 mW/cm^2. The emission spectrum of the halogen lamp was recorded using a spectroradiometer IL2000 (Spectrocube), FIG. 1. In the second case, three Lynx external cavity diode lasers TEC 500 powered by PilotPC 500 Laser Controllers (Sacher Lasertechnik, Marburg, Germany) were employed. The laser energies were stable at 40 mW for the 748 nm laser, 10 mW for the 649 laser and 10 mW for the 633 laser. The laser energies were regularly measured with a Coherent LaserCheck. In some in vitro experiments, the laser light was focused on an optical fiber through a collimator in microbench, and delivered to the cells. This system reduced the 748 nm laser light to 30 mW.
(§3) The cell lines employed in halogen lamp irradiation were the MCF7 (human breast carcinoma), SKMEL 188 (human melanoma) and S91/I3 (mouse melanoma) cells. They were used both for cytotoxicity and photocytotoxicity experiments. MCF7 cells were grown supplemented with 10% fetal calf (FBS) serum, 25 units/ml of penicillin, and 25 μg/ml of streptomycin. Human melanoma cells SKMEL-188 were grown in F10 medium supplemented with 10% fetal calf serum (FCS), 100 units/ml of penicillin, and 100 μg/ml of streptomycin. I3 subline of Cloudman S91 melanoma cells were cultured in RPMI 1640 medium supplemented with 100 units/ml of penicillin, 100 μg/ml streptomycin and 5% fetal calf serum (FCS) (Gibco BRL). All cell lines were cultivated as monolayer in Petri dishes of 60 mm diameter and incubated at 37° C. in a humid atmosphere containing 5% CO2.
(§4) Cytotoxicity. Cell metabolic efficiency and viability were determined by the uptake and reduction of 3-(4,5-dimethylthiazol-2-yl)-2,5-diphenyl tetrazolium bromide (MTT) to an insoluble formazan dye by cellular microsomal enzymes. The cell lines were grown in RPMI medium with 10% fetal calf serum, penicillin and streptomycin. Cells were maintained in 5% CO2, 95% air and 100% humidity. For determining cytotoxicity, these cells were plated in 96-well plates at a density of 1×10^4 cells well in complete media. After 24 h, the cells were incubated with photosensitizers at different concentrations (0.25 up to 50 μM) for 18 hours at 37° C. The cells were then washed twice with PBS and incubated in growth medium at 37° C. for 24 h. Next, the medium was replaced by 100 μl of fresh medium and 20 μl of MTT, and the cells were incubated with MTT for 3 h, with a final concentration of 0.5 mg/ml. Then the culture medium was replaced with DMSO-methanol solution (1:1) to dissolve the blue formazan crystals. The 96-well culture plate was shaken for 0.5 min at room temperature and immediately read for optical density at 560 nm using an ELISA reader (GENios Plus; Tecan Trading AG, Switzerland). The cell survival was expressed by the absorbance changes of the formazan salt, and survival rate was given as the percent ratio of viable treated cells vs. the number of viable untreated cells. Number of cells was determined from linear regression of a calibration curve.
(§5) Cell photosensitization. SKMEL 188, S91 and MCF7 cells were prepared as described above. […] The cells were incubated for 12 h at 37° C. and then irradiated at a 0.53 mW cm^2 fluence rate and in doses ranging from 0.1 to 0.64 J cm^2. We recall that photosensitizer uses only ca. ⅕ of the available fluence rate of the filtered halogen lamp. The MTT test was performed 24 h after irradiation. The values were obtained from three independent experiments and expressed as percent of cell survival with reference to control cells, which were manipulated in the same manner but without incubation with photosensitizer and without illumination. […]

[3] = tested on: MCF7 (human breast carcinoma); test: as above; type: cell-based; settings: [Luzitin-Cl-c] = 20 μM, filtered halogen lamp
Experimental: as §2, §3, §4, §5

[4] = tested on: SKMEL 188 (human melanoma); test: as above; type: cell-based; settings: [Luzitin-Cl-c] = 20 μM
Experimental: as §2
as §3, with “All cell lines were cultivated as monolayer in Petri dishes of 60 mm diameter and incubated at 37° C. in a humid atmosphere containing 5% CO2.” left out
Cytotoxicity. Cell metabolic efficiency and viability were determined by the uptake and reduction of 3-(4,5-dimethylthiazol-2-yl)-2,5-diphenyl tetrazolium bromide (MTT) to an insoluble formazan dye by cellular microsomal enzymes. […] The 96-well culture plate was shaken for 0.5 min at room temperature and immediately read for optical density at 560 nm using an ELISA reader (GENios Plus; Tecan Trading AG, Switzerland). The cell survival was expressed by the absorbance changes of the formazan salt, and survival rate was given as the percent ratio of viable treated cells vs. the number of viable untreated cells. Number of cells was determined from linear regression of a calibration curve.
Cell photosensitization. […] The values were obtained from three independent experiments and expressed as percent of cell survival with reference to control cells, which were manipulated in the same manner but without incubation with photosensitizer and without illumination.

[5] = Singlet oxygen quantum yield and lifetime (1270 nm phosphorescence); type: physicochemical; settings: in aqueous solution

O=S(=O)(O)c1ccc(Cl)c(-c2c3nc(c(-c4cc(S(=O)(=O)O)ccc4Cl)c4ccc([nH]4)c(-c4cc(S(=O)(=O)O)ccc4Cl)c4nc(c(-c5cc(S(=O)(=O)O)ccc5Cl)c5ccc2[nH]5)CC4)C=C3)c1 [Luzitin-Cl-c, 5,10,15,20-tetrakis(2-chloro-5-sulfonylphenyl)chlorin]
εmax [1]: 7,000 M^−1 cm^−1
λmax [1]: 650 nm
ΦF (fluorescence quantum yield) [2]: 0.039
LD50 (light dose to kill 50% of the cells) (S91 (mouse melanoma)): 0.13 J/cm^2
LD90 (light dose to kill 90% of the cells) (S91 (mouse melanoma)): 0.26 J/cm^2
LD50 (light dose to kill 50% of the cells) [3]: 0.3 J/cm^2
LD90 (light dose to kill 90% of the cells) [3]: 0.7 J/cm^2
LD50 (light dose to kill 50% of the cells) [4]: 0.26 J/cm^2
LD90 (light dose to kill 90% of the cells) [4]: 0.46 J/cm^2
ΦΔ (singlet oxygen quantum yield) [5]: 0.69
